The assay concerns the target T1, Human M4 receptors (Homo sapiens, UniProt P08173).
T1 construct: expressed in transfected cells
T1 sequence (P08173 1-479): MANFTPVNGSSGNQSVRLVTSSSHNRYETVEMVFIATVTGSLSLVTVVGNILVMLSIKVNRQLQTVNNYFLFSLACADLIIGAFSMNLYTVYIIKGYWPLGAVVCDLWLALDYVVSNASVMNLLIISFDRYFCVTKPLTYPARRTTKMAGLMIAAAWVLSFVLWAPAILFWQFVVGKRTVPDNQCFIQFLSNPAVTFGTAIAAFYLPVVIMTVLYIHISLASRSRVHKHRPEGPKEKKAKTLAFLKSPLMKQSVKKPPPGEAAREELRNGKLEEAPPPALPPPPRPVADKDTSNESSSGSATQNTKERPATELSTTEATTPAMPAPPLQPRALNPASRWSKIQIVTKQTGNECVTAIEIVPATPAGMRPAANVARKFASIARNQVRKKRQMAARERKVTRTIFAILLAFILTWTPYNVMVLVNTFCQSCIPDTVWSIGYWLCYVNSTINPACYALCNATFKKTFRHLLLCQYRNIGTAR
Kind of assay: M4 PAM cAMP assay (GloSensor). It counts as cell-based. Conditions: HEK293 GloSensor cells expressing hM4, with EC20 acetylcholine and isoproterenol, geometric mean of 2-4 determinations unless footnoted (b: >=5, c: single); for EC50 Mean Asymptote Maximum (%) / Emax: Emax = maximum asymptote of fitted dose response curve; for Emax: read-out: EC50 Mean Asymptote Maximum (%). As to the method:
The M4 cAMP assay was designed to determine the potency and efficacy of muscarinic positive allosteric modulators (PAMs). Human M4 receptors were stably expressed in Human embryonic kidney (HEK293) cells expressed with the Promega GloSensor™ cAMP technology.
HEK293 GloSensor cells expressing hM4 cells were cultured in growth media containing DMEM with 10% FBS, 1% Penicillin/Streptomycin, 500 μg/mL G418, 200 μg/mL Hygomycin B, and 1% Glutamax. When cells had grown to 80%-90% confluency, cells were harvested and seeded at a density of 25,000 cells/40 μL well, in a 384 white walled plates (Becton Dickinson 356661). Plates were incubated at 37 degrees C. and 5% CO2 for use after 24 hours.
Compound Preparation for Activator Screen:
Test compounds were initially prepared as 100% DMSO stock solutions, then transferred and serially diluted in 384-well compound plates (Matrix #4325). Each compound was tested at 10 concentrations in duplicate per experiment. Compound plates are spotted with 0.2 μL/well activator at 400 times the final assay concentration. Positive and negative controls for the compound alone activator response was 10 μM acetylcholine (Sigma # A2661) and DMSO, respectively. EC20 of acetylcholine was also used to define PAM activities.
Promega GloSensor™reagent (Promega # E1291) had previously been aliquotted. For each experiment, a stock solution of GloSensor™ was thawed out and equilibration medium was prepared with 88% CO2-independent media (Invitrogen #18045088), 10% fetal bovine serum and 2% GloSensor™ cAMP Reagent stock solution. Stock solution was mixed. Culture media in cell plates was discarded, then replaced with 40 μL/well pre-warmed equilibration media, then incubated in the dark at room temperature for 2 hours. During the incubation, stimulation media containing agonist and EC20 acetylcholine was prepared. CO2-independent media containing 50 […] Isoproterenol representing an EC80 of b-adrenergic receptor activity (Sigma #16504, 400 times final concentration) and EC20 acetylcholine in 1.25% DMSO was added to all columns of the compound plate, with the exception of column 12 to allow for EC0 control. […] Compounds are now 5 times the final assay concentration. The plate was mixed using a plate agitator. At the end of the 2 hour GloSensor™ incubation, add 10 μL of the CO2-independent media containing agonist, EC20 acetylcholine and isoproterenol to the cell plate. Cell plate was then incubated for 10 minutes at room temperature, and then read using an EnVision plate reader (Perkin Elmer).
Data was exported from the EnVision plate reader. The percent effect for each well was determined using the mean values for the positive and negative controls on each plate for each read, specifically 100*(compound−negative control)/(positive control−negative control). Dose response curves were fitted to the compound percent effect data using a 4-parameter logistic fit model. Data was reported as EC50 and Emax, with the Emax as the maximum asymptote of the fitted dose response curve.
For orientation: Cyclic AMP is a second messenger, typically raised through Gs and lowered through Gi signalling.

Consider `Cc1nc(N)c2c(c1C)CN(C(=O)C[C@@H]1C[C@H]1c1ccc(F)nc1)C2` (single isomer, unassigned) [Example 9, 1-(4-Amino-6,7-dimethyl-1,3-dihydro-2H-pyrrolo[3,4-c]pyridin-2-yl)-2-[trans-2-(6-fluoropyridin-3-yl)cyclopropyl]ethanone], for which the “EC50 Mean Asymptote Maximum (%)” value stood at 111% and the EC50 turned out to be 99.4 nM.

`CNc1nc(C)c(C)c2c1CN(C(=O)OC1Cc3cccnc3C1)C2` (stereo not shown) [Example 6, 6,7-Dihydro-5H-cyclopenta[b]pyridin-6-yl 6,7-dimethyl-4-(methylamino)-1,3-dihydro-2H-pyrrolo[3,4-c]pyridine-2-carboxylate]: the Emax was 92% and the response was half-maximal at 50.6 nM (EC50).

As to `Cc1nc(N)c2c(c1C)CN(C(=O)C[C@@H]1C[C@H]1c1ccc(F)nc1)C2` (relative stereo) [Example 7, 1-(4-Amino-6,7-dimethyl-1,3-dihydro-2H-pyrrolo[3,4-c]pyridin-2-yl)-2-[trans-2-(6-fluoropyridin-3-yl)cyclopropyl]ethanone], the Emax is 109% and the EC50 was determined as 6.45 nM.

`CNc1nc(C)c(C)c2c1CN(C(=O)C[C@@H]1C[C@H]1c1ccc(C)nc1)C2` (single isomer, unassigned) [Example 46, 1-[6,7-dimethyl-4-(methylamino)-1,3-dihydro-2H-pyrrolo[3,4-c]pyridin-2-yl]-2-[trans-2-(6-methylpyridin-3-yl)cyclopropyl]ethanone] returned an EC50 of over 10000 nM.

`CNc1nc(C)c(C)c2c1CN(C(=O)[C@@H]1CCOC1)C2` [Example 59, [6,7-dimethyl-4-(methylamino)-1,3-dihydro-2H-pyrrolo[3,4-c]pyridin-2-yl][(3R)-tetrahydrofuran-3-yl]methanone]: the Emax is 95.5% and the EC50 stood at 149 nM.

With `CNc1nc(C)c(C)c2c1CN(C(=O)CC1CN(c3ccnc(OC(F)F)c3)C1)C2C` (single isomer, unassigned) [Example 50, 2-{1-[2-(difluoromethoxy)pyridin-4-yl]azetidin-3-yl}-1-[1,6,7-trimethyl-4-(methylamino)-1,3-dihydro-2H-pyrrolo[3,4-c]pyridin-2-yl]ethanone], the “EC50 Mean Asymptote Maximum (%)” value is 104^c % and the EC50 was 9.88 nM.

For the compound `CNc1nc(C)c(C)c2c1CN(C(=O)CC1Cc3ccc(F)cc3C1)C2` (single isomer, unassigned) [Example 57, 1-[6,7-dimethyl-4-(methylamino)-1,3-dihydro-2H-pyrrolo[3,4-c]pyridin-2-yl]-2-(5-fluoro-2,3-dihydro-1H-inden-2-yl)ethanone], the Emax was found to be 97% and the response was half-maximal at 30.9 nM (EC50).

In the case of `CNc1nc(C)c(C)c2c1CN(C(=O)CCc1ccc(C#N)cc1)C2` [Example 31, 4-{3-[6,7-dimethyl-4-(methylamino)-1,3-dihydro-2H-pyrrolo[3,4-c]pyridin-2-yl]-3-oxopropyl}benzonitrile], the Emax worked out at 102% and the EC50 came to 12.1 nM.

As to `CNc1nc(C)c(C)c2c1CN(C(=O)C[C@@H]1C[C@H]1c1ccc(C)nc1)C2` (single isomer, unassigned) [Example 47, 1-[6,7-dimethyl-4-(methylamino)-1,3-dihydro-2H-pyrrolo[3,4-c]pyridin-2-yl]-2-[trans-2-(6-methylpyridin-3-yl)cyclopropyl]ethanone], the Emax was 115% and the midpoint of the response, the EC50, lay at 2.05 nM.

With `Cc1nc(N(C)C)c2c(c1C)CN(C(=O)CC1CN(c3cncnc3)C1)C2` [Example 20, 1-[4-(dimethylamino)-6,7-dimethyl-1,3-dihydro-2H-pyrrolo[3,4-c]pyridin-2-yl]-2-[1-(pyrimidin-5-yl)azetidin-3-yl]ethanone], the Emax was found to be 95.1% and the EC50 amounted to 30.4 nM.

As for `CNc1nc(C)c(C)c2c1CN(C(=O)C[C@@H]1C[C@H]1c1cncnc1)C2` (single isomer, unassigned) [Example 29, 1-[6,7-dimethyl-4-(methylamino)-1,3-dihydro-2H-pyrrolo[3,4-c]pyridin-2-yl]-2-[trans-2-(pyrimidin-5-yl)cyclopropyl]ethanone], the Emax stood at 96.3% and the midpoint of the response, the EC50, lay at 690 nM.

As to `CNc1nc(C)c(C)c2c1CN(C(=O)C[C@@H]1C[C@H]1c1ccc(F)cc1)C2` (single isomer, unassigned) [Example 41, 1-[6,7-dimethyl-4-(methylamino)-1,3-dihydro-2H-pyrrolo[3,4-c]pyridin-2-yl]-2-[trans-2-(4-fluorophenyl)cyclopropyl]ethanone], the “EC50 Mean Asymptote Maximum (%)” value is given as 145^c % and the half-maximal effective concentration (EC50) worked out at 783 nM.

`Cc1c2c(c(=O)n(C)c1C)CN(C(=O)CC1CN(c3ccnc(C(F)(F)F)c3)C1)C2` [Example 25, 5,6,7-trimethyl-2-({1-[2-(trifluoromethyl)pyridin-4-yl]azetidin-3-yl}acetyl)-1,2,3,5-tetrahydro-4H-pyrrolo[3,4-c]pyridin-4-one]: the Emax came out at 98.9% and the EC50 was 8.35 nM.

Take `CNc1nc(C)c(C)c2c1CN(C(=O)C1CC1)C2` [Example 58, cyclopropyl[6,7-dimethyl-4-(methylamino)-1,3-dihydro-2H-pyrrolo[3,4-c]pyridin-2-yl]methanone]: the Emax worked out at 96.2% and the EC50 worked out at 95.2 nM.

Turning to `CNc1nc(C)c(C)c2c1CN(C(=O)CC1CN(c3ccnc(OC(F)F)c3)C1)C2C` (single isomer, unassigned) [Example 49, 2-{1-[2-(difluoromethoxy)pyridin-4-yl]azetidin-3-yl}-1-[1,6,7-trimethyl-4-(methylamino)-1,3-dihydro-2H-pyrrolo[3,4-c]pyridin-2-yl]ethanone], the “EC50 Mean Asymptote Maximum (%)” value was 140^c % and a half-maximal effect (EC50) was put at 754 nM.

In the case of `CNc1nc(C)c(C)c2c1CN(C(=O)CC1CN(c3ccc(F)nc3)C1)C2` [Example 51, 1-[6,7-dimethyl-4-(methylamino)-1,3-dihydro-2H-pyrrolo[3,4-c]pyridin-2-yl]-2-[1-(6-fluoropyridin-3-yl)azetidin-3-yl]ethanone], the Emax came out at 97.7% and the EC50 was 3.26 nM.

As to `CNc1nc(C)c(C)c2c1CN(C(=O)C[C@@H]1C[C@H]1c1cncnc1)C2` (single isomer, unassigned) [Example 30, 1-[6,7-dimethyl-4-(methylamino)-1,3-dihydro-2H-pyrrolo[3,4-c]pyridin-2-yl]-2-[trans-2-(pyrimidin-5-yl)cyclopropyl]ethanone], the “EC50 Mean Asymptote Maximum (%)” value was determined as 95.1% and the midpoint of the response, the EC50, lay at 1.58 nM.

For `Cc1nc(N(C)C)c2c(c1C)CN(C(=O)CC1CN(c3cccnc3)C1)C2` [Example 17, 1-[4-(dimethylamino)-6,7-dimethyl-1,3-dihydro-2H-pyrrolo[3,4-c]pyridin-2-yl]-2-[1-(pyridin-3-yl)azetidin-3-yl]ethanone], the Emax is 102% and the 50% effective concentration (EC50) worked out at 17.9 nM.

On to `CNc1nc(C)c(C)c2c1CN(C(=O)CC1CN(c3ccncn3)C1)C2` [Example 23, 1-[6,7-dimethyl-4-(methylamino)-1,3-dihydro-2H-pyrrolo[3,4-c]pyridin-2-yl]-2-[1-(pyrimidin-4-yl)azetidin-3-yl]ethanone], for which the Emax was determined as 95.9% and the midpoint of the response, the EC50, lay at 1.44 nM.

As a reminder, the EC50 is the midpoint of the concentration-response curve. Low readings indicate higher potency in that assay, high ones lower potency in that assay.

The values above are taken from patent publication US11198692B2, “Dihydro-pyrrolo-pyridine derivatives” (Pfizer Inc., priority 2017, dated 2021).
